{"source": "patent US10244779B2", "about": "“Method of improving stability of sweet enhancer and composition containing stabilized sweet enhancer” (SENOMYX, INC., priority 2010, dated 2019)", "data": [{"test": "not given", "conditions": "not given", "units": {"melting point": "°C"}, "values": [{"molecule": "CCC(CC)NC(=O)C(C)(C)COc1cccc2nc(C)c(C(=O)O)c(N)c12", "note": "[Example 148, 4-amino-5-(2,2-dimethyl-3-oxo-3-(pentan-3-ylamino)propoxy)-2-methyl-quinoline-3-carboxylic Acid]", "melting point": "172 to 174"}, {"molecule": "Cc1nc2cccc(OCC(C)(C)NC(=O)CN3CCOCC3)c2c(N)c1C(=O)O", "note": "[Example 149, 4-amino-2-methyl-5-(2-methyl-2-(2-morpholinoacetamido)propoxy)quinoline-3-carboxylic Acid]", "melting point": "173 to 175"}, {"molecule": "Cc1nc2cccc(OCC(C)(C)C(=O)NCC(C)C)c2c(N)c1C(=O)O", "note": "[Example 150, 4-amino-5-(3-(isobutylamino)-2,2-dimethyl-3-oxopropoxy)-2-methylquinoline-3-carboxylic Acid]", "melting point": "176 to 179"}, {"molecule": "Cc1nc2cccc(OCC(C)(C)C(=O)NCC3CCC3)c2c(N)c1C(=O)O", "note": "[Example 151, 4-amino-5-(3-((cyclobutylmethyl)amino)-2,2-dimethyl-3-oxopropoxy)-2-methylquinoline-3-carboxylic Acid]", "melting point": "170 to 172"}, {"molecule": "CCC(=O)N1CCC(COc2cccc3nc(C)c(C(=O)O)c(N)c23)CC1", "note": "[Example 153, 4-amino-2-methyl-5-((1-propionylpiperidin-4-yl)methoxy)quinoline-3-carboxylic Acid]", "melting point": "168 to 170"}, {"molecule": "CNC(=O)[C@H]1CC[C@H](Oc2cccc3nc(C)c(C(=O)O)c(N)c23)CC1", "note": "[Example 154, 4-amino-2-methyl-5-(((1,4)-trans-4-(methylcarbamoyl)cyclohexyl)oxy)quinoline-3-carboxylic Acid]", "melting point": "195 to 198"}, {"molecule": "CCCOc1cccc2c1C(N)=NS(=O)(=O)N2", "note": "[Example 158, 4-Amino-5-(propyloxy)-1H-benzo[c][1,2,6]thiadiazine-2,2-dioxide]", "melting point": "229 to 230"}, {"molecule": "Nc1nc(=O)[nH]c2sc3c(c12)CCOC3", "note": "[Example 159, 4-Amino-5,6-(5′,7′-dihydro-4′H-[2′,3′-c]pyrano)thieno[2,3-d]-pyrimidine-2(1H)-one]", "melting point": "> 260"}, {"molecule": "CCCNC(=O)C(C)(C)COc1cccc2c1C(N)=NS(=O)(=O)N2", "note": "[Example 197, 3-(4-Amino-2,2-dioxide-1H-benzo[c][1,2,6]thiadiazin-5-yloxy)-2′,2′-dimethyl-N-propylpropanamide]", "melting point": "225 to 226"}, {"molecule": "CC(C)(COc1cccc2c1C(N)=NS(=O)(=O)N2)NC(=O)c1ccccc1", "note": "[Example 198, N-(1-(4-amino-2,2-dioxide-1H-benzo[c][1,2,6]thiadiazin-5-yloxy)-2′-methylpropan-2′-yl)benzamide]", "melting point": "235 to 236"}]}, {"test": "Photostability of Compound A in various mediums (water, brewed coffee, tea, TBHQ in water; FIG. 1)", "assay_type": "physicochemical", "conditions": "TBHQ 200 ppm in water", "procedure": "The equivalent sunlight exposure time for 24 hours in the Q-Sun at a constant temperature of 25° C. and irradiance of 450 mW/m^2 @340 nm is estimated to be equivalent to approximately 15.9 days of direct sunlight in the Southwestern United States.\nFIG. 1 illustrates the effect of coffee and tea on rate of photo-degradation of Compound A relative to water alone.", "values": [{"molecule": "CC(C)(C)c1cc(O)ccc1O", "note": "[tert-butyl hydroquinone]", "effect on the rate of photo-degradation of Compound A": "marginal effect"}]}]}
